Measured values: US12516038B2, “Inhibitors of antigen presentation by HLA-DR” (Janssen Pharmaceutica NV, priority 2020, dated 2026)

What was measured:
[1] = system: HLA-DR4 restricted mouse T cell hybridoma line (DR4.CII.36.8) with HLA-DRB1*04:01-expressing Boleth cells; assay: HLA-DR4-restricted peptide-specific T cell-based assay (hybridoma assay); details: Mus musculus, T-cell, 6 h, inhibition of IL-2 production, CII259-273 peptide presented by Boleth cells
In short: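 Boleth cells (HLA-DRB1*04:01 B cell line) pre-incubated with compound 1 h at 37° C. in DMEM/1% FCS, then DR4.CII.36.8 mouse T cell hybridoma (CII259-273-specific) added for 6 h with CII259-273 peptide. Supernatant mouse IL-2 by AlphaLISA; IC50 by 4-PL fit of 8-point duplicate titrations.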

HLA-DRB1*0401 = HLA-DRB1*0401 (Homo sapiens (Human), UniProt P01903+P01911, A100K/A169T/DEL228-266/F76Y/I96L/K127E/L162R/M171V/N62H/P40V/Q125Y/R42H/S133A/S149N/S66Y/V115G/V209L/W38E); assay: HLA-DR4 HTRF assay; type: binding; details: inhibition of loading of Alexa Fluor 647-labeled Cit-CII peptide onto HLA-DR4 (CLIP cleaved)
In short: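 HLA-DRB1*04:01 construct (α/β fused to human Fc, CLIP pre-cleaved by HRV3C overnight at 4° C) at 3 nM was preincubated 45 min with compound and 1 nM anti-Fc-Tb donor, then 40 nM Alexa647-Cit-CII1236-1249 peptide added. After 90 min at 37° C, the 665/620 nm HTRF ratio gave % inhibition; IC50 by nonlinear regression.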

[2] = system: human peripheral blood CD4+ helper T cells; assay: Pan-CD4+ T cell activation (off-target assay); type: cell-based; details: Homo sapiens, T-cell, 24 h, anti-CD3/anti-CD28 stimulation, IL-2 production by ELISA
In short: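 Human peripheral blood CD4+ T cells, with no APCs present, were stimulated with plate-bound anti-CD3 (1 μg/mL coating) plus soluble anti-CD28 (1 μg/mL) in the presence of compound or vehicle for 24 h. IL-2 in the supernatant was quantified by ELISA.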

Compound | IC50 [1] | IC50 (HLA-DRB1*0401) | IC50 [2]
NC(=O)c1ccc([C@@H](Oc2ccc3c(c2)OCCC3=O)c2ccnc(-c3ccccc3)c2)cc1 (single isomer, unassigned) [Example 26a, (*R)-4-(((4-oxochroman-7-yl)oxy)(2-phenylpyridin-4-yl)methyl)benzamide] | 1.1 µM | 64 µM | > 15 µM
NC(=O)c1ccc([C@@H](Oc2ccc3c(c2)O[C@H](c2ccccc2)CC3=O)c2ccncc2)cc1 (single isomer, unassigned) [Example 43b, 4-((*R)—(((*S)-4-oxo-2-phenylchroman-7-yl)oxy)(pyridin-4-yl)methyl)benzamide] | 0.63 µM | 4.9 µM | 9.9 µM
NC(=O)c1ccc([C@@H](Oc2ccc3c(c2)OCCC3=O)c2cccnc2)cc1 (single isomer, unassigned) [Example 31a, (*R)-4-(((4-oxochroman-7-yl)oxy)(pyridin-3-yl)methyl)benzamide] | 5.5 µM | 0.85 µM | 15 µM
COc1cc(O[C@H](c2ccncc2)c2ccc(C(N)=O)cc2)cc2c1C(=O)CCO2 (single isomer, unassigned) [Example 77b, (*S)-4-(((5-methoxy-4-oxochroman-7-yl)oxy)(pyridin-4-yl)methyl)benzamide] | 5.5 µM | 1.5 µM | 9.9 µM
CCc1c(O[C@H](c2ccncc2)c2ccc(C(N)=O)cc2)ccc2c1OCCC2=O (single isomer, unassigned) [Example 73b, (*S)-4-(((8-ethyl-4-oxochroman-7-yl)oxy)(pyridin-4-yl)methyl)benzamide] | 0.71 µM | 0.6 µM | 15 µM
O=C1CCOc2cc(O[C@H](c3ccccc3)c3ccncc3)ccc21 (single isomer, unassigned) [Example 114a, (*R)-7-(phenyl(pyridin-4-yl)methoxy)chroman-4-one] | 5.5 µM | 1.4 µM | > 15 µM
COc1ccc([C@H](Oc2ccc3c(c2)OCCC3=O)c2ccncc2)cc1 (single isomer, unassigned) [Example 12b, (*S)-7-((4-Methoxyphenyl)(pyridin-4-yl)methoxy)chroman-4-one] | 2.9 µM | 1.7 µM | > 15 µM
Cc1c(O[C@H](c2ccc(C(N)=O)cc2)c2ccc(C(=O)O)cc2)ccc2c1OCCC2=O (single isomer, unassigned) [Example 71a, (*R)-4-((4-carbamoylphenyl)((8-methyl-4-oxochroman-7-yl)oxy)methyl)benzoic acid] | 1.5 µM | 1.6 µM | > 15 µM
NC(=O)c1cccc([C@H](Oc2ccc3c(c2)OCCC3=O)c2ccncc2)c1 (single isomer, unassigned) [Example 9b, (*S)-3-(((4-oxochroman-7-yl)oxy)(pyridin-4-yl)methyl)benzamide] | 11 µM | 0.98 µM | 4.7 µM
Cc1c(O[C@H](c2ccncc2)c2ccc(C(N)=O)cc2OCC(C)C)ccc2c1OCCC2=O (single isomer, unassigned) [Example 85a, (*R)-3-isobutoxy-4-(((8-methyl-4-oxochroman-7-yl)oxy)(pyridin-4-yl)methyl)benzamide] | 0.24 µM | 0.81 µM | 3.7 µM
Cc1c(OC2CCc3cc(C(N)=O)ccc32)ccc2c1OCCC2=O (racemic) [Example 121, (R,S)-1-((8-Methyl-4-oxochroman-7-yl)oxy)-2,3-dihydro-1H-indene-5-carboxamide] | 8.1 µM | 0.63 µM | > 15 µM
Cc1c(O[C@H](c2ccncc2)c2ccc(C(N)=O)cc2OCc2ccccc2)ccc2c1OCCC2=O (single isomer, unassigned) [Example 86a, (*R)-3-(benzyloxy)-4-(((8-methyl-4-oxochroman-7-yl)oxy)(pyridin-4-yl)methyl)benzamide] | 0.072 µM | 0.74 µM | 2.5 µM
Cc1cc(C(N)=O)ccc1[C@H](Oc1ccc2c(c1)OCCC2=O)c1ccncc1 (single isomer, unassigned) [Example 36a, (*R)-3-methyl-4-(((4-oxochroman-7-yl)oxy)(pyridin-4-yl)methyl)benzamide] | 4.8 µM | 0.55 µM | 4.7 µM
COc1ccc(COc2ccc([C@H](Oc3ccc4c(c3)OCCC4=O)c3ccncc3)cc2)cc1 (single isomer, unassigned) [Example 17b, (*S)-7-((4-((4-Methoxybenzyl)oxy)phenyl)(pyridin-4-yl)methoxy)chroman-4-one] | 7.7 µM | 4.9 µM | 4.8 µM
Cc1c(O[C@H]2CCc3cc(C(N)=O)ccc32)ccc2c1OCCC2=O (single isomer, unassigned) [Example 121b, (*S)-1-((8-methyl-4-oxochroman-7-yl)oxy)-2,3-dihydro-1H-indene-5-carboxamide] | 14 µM | 0.83 µM | > 15 µM
NC(=O)c1ccc([C@@H](Oc2ccc3c(c2)OCC(c2ccccc2)C3=O)c2ccncc2)cc1 (stereo in doubt) [Example 47, 4-((1*R)-((4-Oxo-3-phenylchroman-7-yl)oxy)(pyridin-4-yl)methyl)benzamide] | 0.6 µM | 6.5 µM | 9.9 µM
Cc1cc2c(c(C)c1O[C@H](c1ccncc1)c1ccc(C#N)cc1)OCCC2=O (single isomer, unassigned) [Example 88b, (*S)-4-(((6,8-dimethyl-4-oxochroman-7-yl)oxy)(pyridin-4-yl)methyl)benzonitrile] | 5.9 µM | 0.36 µM | 9.9 µM
N#Cc1ccccc1[C@H](Oc1ccc2c(c1)OCCC2=O)c1ccncc1 (single isomer, unassigned) [Example 7a, (*R)-2-(((4-Oxochroman-7-yl)oxy)(pyridin-4-yl)methyl)benzonitrile] | 4.6 µM | 0.69 µM | 4.4 µM
Cc1cc2c(c(C)c1O[C@H](c1ccncc1)c1ccc(C(N)=O)cc1)OCCC2=O (single isomer, unassigned) [Example 89b, (*S)-4-(((6,8-dimethyl-4-oxochroman-7-yl)oxy)(pyridin-4-yl)methyl)benzamide] | 1.2 µM | 0.47 µM | 4.7 µM
CC1(C)COc2cc(O[C@H](c3ccncc3)c3ccc(C(N)=O)cc3)ccc2C1=O (single isomer, unassigned) [Example 56b, (*S)-4-(((3,3-dimethyl-4-oxochroman-7-yl)oxy)(pyridin-4-yl)methyl)benzamide] | 6 µM | 1.3 µM | > 15 µM
COc1ccccc1C(Oc1ccc2c(c1)OCCC2=O)c1ccncc1 (racemic) [Example 14, 7-((2-Methoxyphenyl)(pyridin-4-yl)methoxy)chroman-4-one] | 5 µM | 2.4 µM | > 15 µM
CCc1c(O[C@@H](c2ccncc2)c2ccc(C(N)=O)cc2)ccc2c1OCCC2=O (single isomer, unassigned) [Example 73a, (*R)-4-(((8-ethyl-4-oxochroman-7-yl)oxy)(pyridin-4-yl)methyl)benzamide] | 0.11 µM | 0.54 µM | 8 µM
N#Cc1ccc([C@H](Oc2ccc3c(c2)OCCC3=O)c2ccncc2)c2ccccc12 (single isomer, unassigned) [Example 37a, (*R)-4-(((4-oxochroman-7-yl)oxy)(pyridin-4-yl)methyl)-1-naphthonitrile] | 9.3 µM | 33 µM | 2 µM
NC(=O)c1ccc([C@@H](Oc2ccc3c(c2-c2ccc(-c4ccccc4)cc2)OCCC3=O)c2ccncc2)cc1 (single isomer, unassigned) [Example 79a, (*R)-4-(((8-([1,1′-biphenyl]-4-yl)-4-oxochroman-7-yl)oxy)(pyridin-4-yl)methyl)benzamide] | 0.47 µM | 28 µM | 3.1 µM
O=C1CCOc2cc(O[C@H](c3ccncc3)c3cccc(F)c3)ccc21 (single isomer, unassigned) [Example 2a, (*R)-7-((3-Fluorophenyl)(pyridin-4-yl)methoxy)chroman-4-one] | 1.7 µM | 1.6 µM | 15 µM
O=C1CCOc2cc(O[C@H](c3ccncc3)C3CCCCC3)ccc21 (single isomer, unassigned) [Example 38b, (*S)-7-(cyclohexyl(pyridin-4-yl)methoxy)chroman-4-one] | 5.5 µM | 4.1 µM | > 15 µM
Cc1c(O[C@@H](c2ccncc2)c2ccc(C(N)=O)cc2OC(C)C)ccc2c1OCCC2=O (single isomer, unassigned) [Example 84b, (*S)-3-isopropoxy-4-(((8-methyl-4-oxochroman-7-yl)oxy)(pyridin-4-yl)methyl)benzamide] | 6.5 µM | < 1 µM | 1.7 µM
